Here are results for one compound from ChEMBL document CHEMBL6092168, “Identification of novel indolinone derivatives as CTSC inhibitors to treat inflammatory bowel disease by modulating inflammatory factors” (Eur J Med Chem, 2024).

Series [1] has as its system Mus musculus. As to the kind of experiment: Anti-inflammatory activity in DSS-induced ulcerative colitis male C57BL/6 mouse model assessed as reduction in TNF-alpha expression in serum administered via gavage for 10 days by ELISA. Conditions: dose 15-60 mg/kg, time 10.0 day. It is filed as functional, organism-based.
A short description of series [2]: Acute toxicity in ICR mouse assessed as change in white blood cell count in bone marrow at 1500 mg/kg, po administered daily for 7 days. It is filed as organism-based. As to conditions: in vivo, 168 h, time 7 day.
The nature of series [3]: MRT in male Sprague-Dawley rat at 2 mg/kg, iv measured at 5 to 1440 mins by LC-MS/MS analysis. As to conditions: in vivo, time 5-1440 min. The format is ADME, organism-based.
In series [4] the test system is Mus musculus. Description: Anti-inflammatory activity in DSS-induced ulcerative colitis male C57BL/6 mouse model assessed as reduction in Cathepsin G level in serum at 60 mg/kg administered via gavage for 10 days relative to control. The format is functional. More on the design: scale not given: the % may be the effect or the level left. Conditions: time 10 day.
The subject of series [5] is Mus musculus. Description: Anti-inflammatory activity in DSS-induced ulcerative colitis male C57BL/6 mouse model assessed as reduction in Cathepsin G level in colon at 60 mg/kg administered via gavage for 10 days relative to control. Also noted: scale not given: the % may be the effect or the level left. Conditions: time 10 day. The format is functional.
The target of series [6] is Voltage-gated inwardly rectifying potassium channel KCNH2 (Homo sapiens, UniProt Q12809). Description: Inhibition of hERG. It is filed as toxicity. (In general: The hERG channel carries a current that helps repolarise heart muscle cells.)
Voltage-gated inwardly rectifying potassium channel KCNH2, sequence (Q12809 whole entry): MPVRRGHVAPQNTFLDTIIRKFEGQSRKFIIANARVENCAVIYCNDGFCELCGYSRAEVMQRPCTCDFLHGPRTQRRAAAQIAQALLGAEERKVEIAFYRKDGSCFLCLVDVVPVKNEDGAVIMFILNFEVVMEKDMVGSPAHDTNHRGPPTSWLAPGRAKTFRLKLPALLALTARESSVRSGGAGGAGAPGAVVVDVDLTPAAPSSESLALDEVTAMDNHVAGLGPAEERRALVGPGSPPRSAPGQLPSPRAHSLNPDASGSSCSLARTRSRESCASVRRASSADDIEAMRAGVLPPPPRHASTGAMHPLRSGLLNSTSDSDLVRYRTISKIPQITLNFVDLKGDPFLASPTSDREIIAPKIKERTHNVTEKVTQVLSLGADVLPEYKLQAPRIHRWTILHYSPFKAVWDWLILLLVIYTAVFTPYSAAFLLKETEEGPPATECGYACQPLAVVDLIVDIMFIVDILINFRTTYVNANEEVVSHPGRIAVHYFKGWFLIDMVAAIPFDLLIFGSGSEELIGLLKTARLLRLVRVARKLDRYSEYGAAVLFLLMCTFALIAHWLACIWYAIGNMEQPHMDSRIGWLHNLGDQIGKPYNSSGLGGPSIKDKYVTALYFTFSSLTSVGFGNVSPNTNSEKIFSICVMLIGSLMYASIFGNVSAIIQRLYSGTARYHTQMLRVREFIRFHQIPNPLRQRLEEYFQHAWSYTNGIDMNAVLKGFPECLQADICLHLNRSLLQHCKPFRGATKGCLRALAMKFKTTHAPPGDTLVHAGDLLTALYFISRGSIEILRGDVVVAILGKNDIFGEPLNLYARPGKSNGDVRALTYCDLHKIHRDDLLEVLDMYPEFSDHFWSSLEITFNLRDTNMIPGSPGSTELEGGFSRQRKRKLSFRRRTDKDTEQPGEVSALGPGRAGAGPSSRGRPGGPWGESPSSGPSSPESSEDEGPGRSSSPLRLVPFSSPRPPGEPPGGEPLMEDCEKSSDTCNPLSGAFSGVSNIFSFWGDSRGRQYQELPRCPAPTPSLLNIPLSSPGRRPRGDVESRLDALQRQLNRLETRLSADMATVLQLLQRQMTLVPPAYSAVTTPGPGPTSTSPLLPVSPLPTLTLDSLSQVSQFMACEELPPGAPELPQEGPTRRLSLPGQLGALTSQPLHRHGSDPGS
The nature of series [7]: Apparent permeability in human Caco-2 cells incubated for 90 min by LC-MS/MS analysis. It is filed as ADME, cell-based. On the technique in general: Passage across Caco-2 layers is used to estimate intestinal permeability.
In series [8] the target is T1, Neutrophil elastase (Mus musculus) (UniProt Q3UP87).
T1 sequence (whole entry): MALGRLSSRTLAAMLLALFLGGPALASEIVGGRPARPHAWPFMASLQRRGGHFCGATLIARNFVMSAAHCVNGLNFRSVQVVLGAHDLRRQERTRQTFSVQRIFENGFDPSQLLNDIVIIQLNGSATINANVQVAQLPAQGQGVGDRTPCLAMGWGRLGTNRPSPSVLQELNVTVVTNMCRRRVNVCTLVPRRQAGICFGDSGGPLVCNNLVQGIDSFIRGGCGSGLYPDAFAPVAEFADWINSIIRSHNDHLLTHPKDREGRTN
As to the kind of experiment: In vivo inhibition of neutrophil elastase in C57BL/6 mouse assessed as reduction in neutrophil elastase activity in blood administered orally once daily for 6 days by fluorescence based microplate reader. Conditions: dose 5-30 mg/kg, route po, time 6.0 day. The format is functional, organism-based.

Another series addresses Dipeptidyl peptidase 1 (Homo sapiens, UniProt P53634). Description: Inhibition of human recombinant Cathepsin C using Gly-Phe-AFC as substrate preincubated for 3 hrs followed by substrate addition and measured after 1 hr by fluorescence based multifunctional microplate reader analysis.
Another series has as its system RAW264.7. As to the kind of experiment: Anti-inflammatory activity in LPS-stimulated mouse RAW264.7 cells assessed as reduction in TNF-alpha production incubated for 24 hrs by ELISA. It is filed as functional, cell-based. Conditions: dose 0.62-5 µM. For orientation: An ELISA detects its analyte on a solid surface through an enzyme-linked reagent.
Series [9] in a line: Cmax in male Sprague-Dawley rat at 10 mg/kg, po measured at 5 to 1440 mins by LC-MS/MS analysis. Conditions: in vivo, time 5-1440 min. It is filed as ADME, organism-based.
Series [10] in a line: Acute toxicity in ICR mouse assessed as body weight loss at 1500 mg/kg, po administered daily for 7 days. It is filed as organism-based. As to conditions: in vivo, 168 h, time 7 day.
Series [11] can be described thus: Cmax in male Sprague-Dawley rat at 2 mg/kg, iv measured at 5 to 1440 mins by LC-MS/MS analysis. As to conditions: in vivo, time 5-1440 min. It is filed as ADME, organism-based.
In series [12] the test system is Mus musculus. Description: Anti-inflammatory activity in DSS-induced ulcerative colitis male C57BL/6 mouse model at 60 mg/kg administered twice daily. The format is functional, organism-based.
The nature of series [13]: AUC (0 to infinity) in male Sprague-Dawley rat at 10 mg/kg, po measured at 5 to 1440 mins by LC-MS/MS analysis. As to conditions: in vivo, time 5-1440 min. It is filed as ADME, organism-based.
The test system of series [14] is Mus musculus. Description: Anti-inflammatory activity in DSS-induced ulcerative colitis male C57BL/6 mouse model assessed as reduction in GM-CSF expression in colon administered via gavage for 10 days by ELISA. The format is functional, organism-based. As to conditions: dose 15-60 mg/kg, time 10.0 day.
Series [15] can be described thus: Acute toxicity in ICR mouse assessed as spleen pathological change at 1500 mg/kg, po administered daily for 7 days by H and E staining based analysis. The format is organism-based. As to conditions: in vivo, 168 h, time 7 day.
Series [16] has as its target T2, Dipeptidyl peptidase 1 (Mus musculus) (UniProt P97821).
T2 sequence (whole entry): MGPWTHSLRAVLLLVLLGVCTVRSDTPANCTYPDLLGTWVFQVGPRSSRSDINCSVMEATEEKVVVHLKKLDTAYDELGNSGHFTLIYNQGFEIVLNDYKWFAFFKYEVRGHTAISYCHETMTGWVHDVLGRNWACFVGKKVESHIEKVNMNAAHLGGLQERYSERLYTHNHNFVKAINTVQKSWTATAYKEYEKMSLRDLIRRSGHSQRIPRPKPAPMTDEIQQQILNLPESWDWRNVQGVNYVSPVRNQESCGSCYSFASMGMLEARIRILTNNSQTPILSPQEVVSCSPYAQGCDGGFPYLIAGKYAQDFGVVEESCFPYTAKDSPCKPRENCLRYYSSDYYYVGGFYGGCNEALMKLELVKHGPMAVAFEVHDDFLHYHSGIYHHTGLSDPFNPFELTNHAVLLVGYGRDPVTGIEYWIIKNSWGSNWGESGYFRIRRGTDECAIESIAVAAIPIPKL
As to the kind of experiment: In vivo inhibition of Cathepsin C in C57BL/6 mouse assessed as reduction in cathepsin C activity in blood at 15 mg/kg, po administered once daily for 6 days by fluorescence based microplate reader relative to control. As to conditions: time 6.0 day. It is filed as functional, organism-based.

Series [17] has as its target T3, Cathepsin G (Homo sapiens) (UniProt P08311).
T3 sequence (whole entry): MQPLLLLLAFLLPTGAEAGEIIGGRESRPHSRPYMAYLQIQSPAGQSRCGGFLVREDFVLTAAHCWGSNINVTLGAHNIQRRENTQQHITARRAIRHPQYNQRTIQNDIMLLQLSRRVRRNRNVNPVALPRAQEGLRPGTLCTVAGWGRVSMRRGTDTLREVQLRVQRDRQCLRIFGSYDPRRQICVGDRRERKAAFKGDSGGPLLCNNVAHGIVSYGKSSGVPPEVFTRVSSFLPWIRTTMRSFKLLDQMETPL
Description: Inhibition of Cathepsin G in human U-937 cells using N-Suc-Ala-Ala-Pro-Phe-pNA as substrate at 10 uM incubated for 5 days by […] based microplate reader analysis relative to control. Conditions: time 5.0 day. The format is cell-based.

Series [18] deals with T1, Neutrophil elastase (Mus musculus). As to the kind of experiment: In vivo inhibition of neutrophil elastase in C57BL/6 mouse assessed as reduction in neutrophil elastase activity in bone marrow at 30 mg/kg, po administered once daily for 6 days by fluorescence based microplate reader relative to control. The format is functional, organism-based. As to conditions: time 6.0 day.

In series [19] the target is T4, Cathepsin G (Mus musculus) (UniProt P28293).
T4 sequence (whole entry): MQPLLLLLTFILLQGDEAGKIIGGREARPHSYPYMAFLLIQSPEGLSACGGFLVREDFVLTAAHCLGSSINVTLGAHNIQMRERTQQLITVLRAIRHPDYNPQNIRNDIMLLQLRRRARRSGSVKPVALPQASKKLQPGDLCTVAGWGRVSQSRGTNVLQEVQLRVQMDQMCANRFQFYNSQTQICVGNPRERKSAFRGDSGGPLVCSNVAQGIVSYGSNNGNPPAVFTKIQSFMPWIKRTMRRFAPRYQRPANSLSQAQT
As to the kind of experiment: Induction of Cathepsin G degradation in C57BL/6 mouse bone marrow cells at 10 uM incubated for 24 hrs by Western blot analysis. It is filed as cell-based. As to conditions: Bone marrow cell.

Activity calls are given as the source filed them. The rule behind the calls is not given here. Some results are limits rather than exact numbers.

Dipeptidyl peptidase 1, sequence (P53634 25-134 limits assumed): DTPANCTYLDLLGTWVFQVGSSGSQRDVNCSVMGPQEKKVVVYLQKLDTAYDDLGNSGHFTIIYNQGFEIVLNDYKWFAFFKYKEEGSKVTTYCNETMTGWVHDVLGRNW
Dipeptidyl peptidase 1, sequence (P53634 231-394 limits assumed): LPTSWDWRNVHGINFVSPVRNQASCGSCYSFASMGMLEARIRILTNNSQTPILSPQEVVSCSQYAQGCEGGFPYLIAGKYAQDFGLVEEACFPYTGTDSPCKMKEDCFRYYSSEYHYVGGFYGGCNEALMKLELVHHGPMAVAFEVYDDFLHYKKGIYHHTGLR
Dipeptidyl peptidase 1, sequence (P53634 395-463 limits assumed): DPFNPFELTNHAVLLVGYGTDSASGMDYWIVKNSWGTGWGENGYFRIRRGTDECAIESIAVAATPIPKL

Turning to `O=C1Nc2c(cccc2-c2ccc(NC3CCOCC3)cc2)/C1=C/c1ccnc2ccccc12`, the Activity entry in the series with Mus musculus [1] is “Dose-dependent-effect; Significant Reduction Observed In High Dose Group”; in [2] it was “Non-toxic”; in the series with Mus musculus [4] it was 40%; with Mus musculus [5], 51%; with RAW264.7 it was “Dose-dependent-effect”; in [10], “Non-toxic”. Moreover, the Activity result in the series with Mus musculus [12] is on record as “Active; Therapeutic Effect Is Slightly Better Than 5-Asa But Worse Than Azd7986”; in the series on Mus musculus [14], “Dose-dependent-effect; Significant Reduction Observed In High Dose Group”; in series [15], “Non-toxic”. The compound also registered an MRT in series [3] of 10.48 h. Besides, the half-inhibitory concentration (IC50) in series [6] is greater than 30 µM; on Dipeptidyl peptidase 1, 0.0843 µM. The Papp at 1.5 h in [7] came to 3.2 ×10⁻⁶ cm/s. Besides, the inhibition result was “Dose-dependent-effect” in [8], less than 50% in [16], 17.2% in [17] and 59.1% in series [18]. Moreover, the results for the maximum concentration (Cmax) in series [9] and in series [11] were 158 ng/mL and 309 ng/mL, respectively. The compound also came in with an AUC in [13] of 407.54 ng·h/mL. Further, the result in series [19] was Active.

One may read the MRT as a mean duration of stay, worked out from the concentration-time curve. Broadly, the IC50 is the midpoint of a concentration-inhibition curve. By Papp is commonly meant the rate of passage across a membrane or cell layer, normalised by area and donor concentration. The inhibition is the percentage by which the read-out fell short of the control. Broadly, the Cmax is the maximum level reached in the sampled fluid or tissue. What is called AUC is the area under the concentration-time curve, a measure of exposure.
